# Reference: ChEMBL document CHEMBL3259665, “Development of bacterial transglycosylase inhibitors as new antibiotics: moenomycin A treatment for drug-resistant Helicobacter pylori” (Bioorg Med Chem Lett, 2014)
# Tests used:
# Helicobacter pylori [1] = assay: Antimicrobial activity against Helicobacter pylori isolated from gastrointestinal disease patient after 72 hrs by Etest method; format: functional
# Helicobacter pylori [2] = assay: Antimicrobial activity against Helicobacter pylori; format: functional
# [3] = Binding affinity to Helicobacter pylori transglycosylase
MIC90 (Helicobacter pylori [1]),MIC (Helicobacter pylori [2]),Kd [3],SMILES
1 µg/mL,–,–,C[C@H]1COc2c(N3CCN(C)CC3)c(F)cc3c(=O)c(C(=O)O)cn1c23.C[C@H]1COc2c(N3CCN(C)CC3)c(F)cc3c(=O)c(C(=O)O)cn1c23.O [LEVOFLOXACIN]
16 µg/mL,–,–,Cc1ncc([N+](=O)[O-])n1CCO [METRONIDAZOLE]
0.5 µg/mL,–,–,CN(C)[C@@H]1C(O)=C(C(N)=O)C(=O)[C@@]2(O)C(O)=C3C(=O)c4c(O)cccc4[C@@](C)(O)[C@H]3C[C@@H]12 [TETRACYCLINE]
8 µg/mL,–,–,CC[C@H]1OC(=O)[C@H](C)[C@@H](O[C@H]2C[C@@](C)(OC)[C@@H](O)[C@H](C)O2)[C@H](C)[C@@H](O[C@@H]2O[C@H](C)C[C@H](N(C)C)[C@H]2O)[C@](C)(OC)C[C@@H](C)C(=O)[C@H](C)[C@@H](O)[C@]1(C)O [CLARITHROMYCIN]
2 µg/mL,1.3 µM,25 nM,C=C(C/C=C(\C)CCC=C(C)C)CCC(C)(C)/C=C/CC/C(C)=C/CO[C@@H](COP(=O)(O)O[C@H]1O[C@H](C(N)=O)[C@@](C)(O)[C@H](OC(N)=O)[C@H]1O[C@@H]1O[C@H](CO[C@@H]2O[C@H](CO)[C@@H](O)[C@H](O)[C@H]2O)[C@@H](O[C@@H]2O[C@H](C)[C@@H](O[C@@H]3O[C@H](C(=O)NC4=C(O)CCC4=O)[C@H](O)[C@H](O)[C@H]3O)[C@H](O)[C@H]2NC(C)=O)[C@H](O)[C@H]1NC(C)=O)C(=O)O [MOENOMYCIN A]
